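Results reflect a 48-hour exposure of cells in 96-well plates to compound at five concentrations. At the TGI there is no net growth.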
Columns and labels:
Assay in all cases: growth of human tumour cells (NCI), 48 h
NCI-H23 lung = system: NCI-H23 lung
SN12C renal = system: SN12C renal
COLO 205 colon = system: COLO 205 colon
SR leukemia = system: SR leukemia
786-0 renal = system: 786-0 renal
M14 melanoma = system: M14 melanoma
ACHN renal = system: ACHN renal
HT29 colon = system: HT29 colon
HOP-92 NSCLC = system: HOP-92 NSCLC
SF-295 CNS = system: SF-295 CNS
UACC-257 melanoma = system: UACC-257 melanoma
TK-10 renal = system: TK-10 renal
UACC-62 melanoma = system: UACC-62 melanoma
PC-3 prostate = system: PC-3 prostate
LOX IMVI melanoma = system: LOX IMVI melanoma
HCC-2998 colon = system: HCC-2998 colon
U251 CNS = system: U251 CNS
SF-539 CNS = system: SF-539 CNS
OVCAR-4 ovarian = system: OVCAR-4 ovarian
SK-MEL-28 melanoma = system: SK-MEL-28 melanoma
HS 578T breast = system: HS 578T breast
MDA-MB-231 breast = system: MDA-MB-231 breast
DU-145 prostate = system: DU-145 prostate
K-562 leukemia = system: K-562 leukemia
EKVX NSCLC = system: EKVX NSCLC
UO-31 renal = system: UO-31 renal
KM12 colon = system: KM12 colon
NCI-H460 lung = system: NCI-H460 lung
NCI/ADR-RES ovarian = system: NCI/ADR-RES ovarian
NCI-H226 lung = system: NCI-H226 lung
NCI-H522 lung = system: NCI-H522 lung
SNB-19 CNS = system: SNB-19 CNS
BT-549 breast = system: BT-549 breast
SW-620 colon = system: SW-620 colon
SNB-75 CNS = system: SNB-75 CNS
CCRF-CEM leukemia = system: CCRF-CEM leukemia
T-47D breast = system: T-47D breast
MDA-MB-435 = system: MDA-MB-435
HCT-116 colon = system: HCT-116 colon
MDA-N = system: MDA-N
SF-268 CNS = system: SF-268 CNS
MCF7 breast = system: MCF7 breast
IGROV1 ovarian = system: IGROV1 ovarian
A498 renal = system: A498 renal
SK-OV-3 ovarian = system: SK-OV-3 ovarian
OVCAR-5 ovarian = system: OVCAR-5 ovarian
SK-MEL-5 melanoma = system: SK-MEL-5 melanoma
CAKI-1 renal = system: CAKI-1 renal
OVCAR-8 ovarian = system: OVCAR-8 ovarian
HL-60(TB) leukemia = system: HL-60(TB) leukemia
A549 NSCLC = system: A549 NSCLC
SK-MEL-2 melanoma = system: SK-MEL-2 melanoma
HCT-15 colon = system: HCT-15 colon
MALME-3M melanoma = system: MALME-3M melanoma

Measured: TGI

C/C=C(/COC(C)=O)C(=O)OC1C=C(C=O)C(C)(C)C=C1C (centres undefined)
> 100 µM: all assays above

Source: PubChem BioAssay (NCI)
